Among the test systems are DMS-114; DMS-273; HOP-18; KM-20L2; LXFL 529; M19-MEL; RXF 631; SNB-78; XF498.
Holding throughout (assay): NCI anticancer screen, dose series, 48 h

Results on 24 molecules are retold here after ChEMBL document CHEMBL1201862, “PubChem BioAssay data set” (2004).

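Assay format: 96-well plates, 48-hour exposure. GI50 is the concentration that inhibits growth by half.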 Active and inactive are the calls of the source. No stated cut-off is given here; in the data, active = GI50 up to about 1.1 µM and inactive = higher. Some results are limits rather than exact numbers.

Regarding `CN1CCN(Cc2nc3cccc4c3c([n+]2[O-])-c2ccccc2-4)CC1`, the GI50 with DMS-114 is 44.4 µM (inactive); with DMS-273, 44.1 µM (inactive); with HOP-18, 37.2 µM (inactive); in the assay with KM-20L2, 36.4 µM (inactive); in the assay on LXFL 529, 38.3 µM (inactive); in the assay with M19-MEL, 34 µM (inactive). For the same molecule, the values for the GI50 with RXF 631 and in the assay with SNB-78 were 60.4 µM (inactive) and 15.1 µM (inactive), respectively.

`CCOC(=O)c1c2ccc(/C=C/c3ccccn3)ccc-2c(C(=O)OCC)c1N`: the GI50 is > 100 µM (inactive) in the assay with DMS-114; > 100 µM (inactive) in the assay on DMS-273; > 100 µM (inactive) in the assay on HOP-18; > 100 µM (inactive) with KM-20L2; 72.6 µM (inactive) in the assay with LXFL 529; > 100 µM (inactive) with M19-MEL. Also, the GI50 in the assay with RXF 631 is > 100 µM (inactive).

Consider `CC[P+](C)(C)c1ccccc1`, for which the GI50 was > 100 µM (inactive) with DMS-114; > 100 µM (inactive) in the assay on DMS-273; 5 µM (inactive) with HOP-18; > 100 µM (inactive) in the assay with KM-20L2; > 100 µM (inactive) in the assay on LXFL 529; > 100 µM (inactive) with M19-MEL. Moreover, the GI50 in the assay on SNB-78 is 58.1 µM (inactive); with XF498, > 100 µM (inactive).

Consider `NC(=S)N/N=C/C(O[C@@H](/C=N/NC(N)=S)CO)n1cnc2c(N)ncnc21` (some centres undefined), for which the GI50 in the assay on DMS-114 is 28.4 µM (inactive); in the assay on DMS-273, > 55.1 µM (inactive); with HOP-18, > 48.8 µM (inactive); in the assay on KM-20L2, > 61.1 µM (inactive); in the assay with LXFL 529, > 78.2 µM (inactive); in the assay on M19-MEL, 97.1 µM (inactive). Further, the GI50 with RXF 631, in the assay on SNB-78 and in the assay on XF498 was > 100 µM (inactive) throughout.

With `CC(C)(Oc1ccc2c(=O)cc(-c3ccc(Cl)cc3)oc2c1)C(=O)Nc1c(Cl)cccc1Cl`, the GI50 in the assay on DMS-114, in the assay with DMS-273, in the assay with HOP-18, in the assay on KM-20L2, with LXFL 529 and in the assay on M19-MEL was > 100 µM (inactive) each time. Also, the GI50 in the assay with SNB-78 and with XF498 was > 100 µM (inactive) throughout.

Take `CCC12CCCN(Cc3ccccc3)C1c1c(n(C)c3ccccc13)CC2` (centres undefined): the GI50 with DMS-273 was 166 µM (inactive); in the assay with KM-20L2, 103 µM (inactive); in the assay on LXFL 529 it was 167 µM (inactive); in the assay with M19-MEL, 170 µM (inactive).

For the molecule `C/C(CC(=O)Nc1ccccc1[N+](=O)[O-])=N\NC(N)=O`, the GI50 in the assay with DMS-114, with KM-20L2, with LXFL 529, with M19-MEL, in the assay with RXF 631 and in the assay on SNB-78 was > 100 µM (inactive) in each case. Moreover, the GI50 in the assay with XF498 is > 100 µM (inactive).

For `CN1CCN=C1c1nnn(-c2ccc([N+](=O)[O-])cc2)c1-c1ccccc1`, the GI50 is 89.3 µM (inactive) in the assay on DMS-114; > 100 µM (inactive) in the assay on DMS-273; > 100 µM (inactive) in the assay with HOP-18; > 100 µM (inactive) in the assay with KM-20L2; > 100 µM (inactive) in the assay with LXFL 529; > 100 µM (inactive) in the assay on M19-MEL. The figures for the GI50 with SNB-78 and in the assay on XF498 were > 100 µM (inactive) and 89.3 µM (inactive), respectively.

On to `COc1cc([C@@H]2c3cc4c(cc3[C@@H](NCc3ccccc3)C3COC(=O)[C@@H]32)OCO4)cc(OC)c1O` (some centres undefined), for which the GI50 in the assay on DMS-114 is 8.41 µM (inactive); in the assay with DMS-273 it was 1.68 µM (inactive); with KM-20L2 it was 17.9 µM (inactive); with LXFL 529, 19.3 µM (inactive); in the assay with M19-MEL, 14.1 µM (inactive); in the assay with RXF 631, 3.44 µM (inactive). Also, the GI50 is 34.9 µM (inactive) with SNB-78 and 13.2 µM (inactive) in the assay on XF498.

Take `COc1ccc(C(=O)O)c(Cc2cccc3ccccc23)c1`: the GI50 in the assay on DMS-114, in the assay on DMS-273, in the assay on HOP-18, in the assay on KM-20L2, in the assay on LXFL 529 and in the assay on M19-MEL was > 100 µM (inactive) in each case. For the same molecule, the GI50 in the assay with RXF 631 was > 100 µM (inactive).

As for `CC1/C(=N\O)CC(c2ccccc2)N(C)C1c1ccccc1` (centres undefined), the GI50 in the assay with DMS-114, in the assay with DMS-273, in the assay with KM-20L2, in the assay on LXFL 529, in the assay on M19-MEL and in the assay on RXF 631 was > 100 µM (inactive) each time. Besides, the GI50 in the assay on SNB-78 was > 100 µM (inactive).

As to `C#CCN(Cc1ccc2nc(-c3ccccc3)c(Cl)nc2c1)c1ccc(Cl)c(Cl)c1`, the GI50 in the assay on DMS-114, with DMS-273, with HOP-18, in the assay with KM-20L2, in the assay on LXFL 529 and in the assay on M19-MEL was > 100 µM (inactive) throughout. Also, the GI50 is 38.1 µM (inactive) in the assay with SNB-78 and > 100 µM (inactive) in the assay on XF498.

Regarding `CC1=CC(=O)NCCN1C`, the GI50 with DMS-114, in the assay on DMS-273, in the assay with HOP-18, in the assay with KM-20L2, in the assay with LXFL 529 and with M19-MEL was > 100 µM (inactive) throughout. For the same molecule, the GI50 in the assay on SNB-78 and with XF498 was > 100 µM (inactive) each time.

Turning to `COc1cc2cnc3c4cc(OCc5ccccc5)ccc4ccc3c2cc1OC`, the GI50 in the assay on DMS-114 was 11.4 µM (inactive); in the assay on HOP-18, 18.4 µM (inactive); in the assay on KM-20L2 it was 80 µM (inactive); in the assay on LXFL 529, 18.8 µM (inactive); with M19-MEL, 27.4 µM (inactive); in the assay with RXF 631 it was 14.1 µM (inactive). Besides, the GI50 with SNB-78 is 19.1 µM (inactive).

Consider `O=C(NC1C(=O)NNC1c1cccc([N+](=O)[O-])c1)c1ccccc1` (centres undefined), for which the GI50 in the assay on DMS-114, with HOP-18, with KM-20L2, in the assay with LXFL 529, with M19-MEL and with RXF 631 was > 100 µM (inactive) each time. For the same molecule, the GI50 in the assay on SNB-78 and with XF498 was > 100 µM (inactive) throughout.

Turning to `CC(=O)N1C/C(=C\c2ccccc2)C(=O)/C(=C/c2ccccc2)C1`, the GI50 in the assay with DMS-273 was 4.85 µM (inactive); with HOP-18, 18.8 µM (inactive); in the assay with KM-20L2, 15.6 µM (inactive); with LXFL 529, 9.4 µM (inactive); in the assay with M19-MEL it was 3.34 µM (inactive); in the assay with SNB-78, 17.2 µM (inactive). In the assay with XF498, the GI50 was 23.8 µM (inactive).

Regarding `O=C(CC(=O)c1cccc2ccccc12)C(=O)Nc1ccc(Cl)cc1`, the GI50 in the assay with DMS-114, in the assay on DMS-273, in the assay on HOP-18, with KM-20L2, in the assay on LXFL 529 and in the assay on M19-MEL was > 100 µM (inactive) throughout. Besides, the GI50 in the assay with RXF 631, in the assay with SNB-78 and in the assay with XF498 was > 100 µM (inactive) in each case.

With `NC(=O)c1cn(C2OC(CO)C(O)C2O)c(=O)[nH]c1=O` (centres undefined), the GI50 in the assay on DMS-114, in the assay with DMS-273, with LXFL 529, with M19-MEL, in the assay on RXF 631 and in the assay with SNB-78 was > 100 µM (inactive) in each case.

`CC(=O)Oc1c2c(c(OC(C)=O)c3c1n(C(C)=O)c1ccccc1n3C(C)=O)n(C(C)=O)c1ccccc1n2C(C)=O`: the GI50 is 2.59 µM (inactive) with DMS-114, 3.24 µM (inactive) with DMS-273, 2.74 µM (inactive) with LXFL 529 and 1.95 µM (inactive) in the assay with M19-MEL.

Turning to `CC(N)CC(=O)O` (centres undefined), the GI50 with DMS-114, in the assay with DMS-273, in the assay on HOP-18, with KM-20L2, in the assay on LXFL 529 and in the assay on M19-MEL was > 5000 µM (inactive) throughout. Also, the GI50 in the assay on SNB-78 is > 5000 µM (inactive).

As for `COc1cc(C2c3cc4c(cc3C(NCC(O)CO)C3COC(=O)[C@H]23)OCO4)cc(OC)c1OC` (some centres undefined), the GI50 was 0.0733 µM (active) in the assay with DMS-114; 0.292 µM (active) in the assay with DMS-273; > 100 µM (inactive) in the assay on HOP-18; 0.143 µM (active) in the assay with KM-20L2; 0.163 µM (active) in the assay on LXFL 529; 0.927 µM (active) with M19-MEL. Moreover, the GI50 was 0.0944 µM (active) in the assay on SNB-78 and 0.372 µM (active) with XF498.

In the case of `CO[C@H](C(=O)O[C@H]1C(=O)N2CCC3CCC1C32C)c1ccccc1` (some centres undefined), the GI50 in the assay on DMS-114, in the assay with HOP-18, in the assay with KM-20L2, with LXFL 529, in the assay with M19-MEL and with SNB-78 was > 100 µM (inactive) throughout. Besides, the GI50 in the assay on XF498 was > 100 µM (inactive).

As to `CC/C=C\C/C=C\C/C=C\CCCCCCCC(=O)OCC(O)CO` (centres undefined), the GI50 with DMS-114 is 44.4 µM (inactive); with DMS-273, > 100 µM (inactive); in the assay with HOP-18, 52.2 µM (inactive); with KM-20L2, > 100 µM (inactive); in the assay on LXFL 529, > 56.9 µM (inactive); in the assay on SNB-78, > 58.7 µM (inactive). Besides, in the assay on XF498, the GI50 is > 100 µM (inactive).

Turning to `Cc1c2cc[n+](C)cc2c(C)c2c1[nH]c1ccc(Cl)cc12`, the GI50 was 0.341 µM (active) with DMS-114; 1.76 µM (inactive) in the assay on DMS-273; 3.78 µM (inactive) in the assay on HOP-18; 2.58 µM (inactive) with KM-20L2; 0.286 µM (active) in the assay on LXFL 529; 0.993 µM (active) with M19-MEL. The GI50 in the assay on SNB-78 is 0.288 µM (active).
